A word on the IC50: it is the concentration needed to halve the response being measured. A high value points to lower potency.

Here are results for 2 compounds from patent US5426194A, “Isolation and structure of Halistatin 1” (Arizona Board of Regents, a body corporate acting on behalf …, priority 1993, dated 1995).

For series [1], the system named is tubulin. As to conditions: in words, shown previously; cited from earlier work.
The subject of series [2] is L1210 murine leukemia cells. Kind of series: cytotoxicity in L1210 leukemia cells. The class given is cell-based.
Series [3] relates to tubulin. Kind of series: binding of radiolabeled vinblastine to tubulin.
Series [4] deals with L1210 murine leukemia cells. Kind of series: mitotic index at cytotoxic concentrations. The format is cell-based. The settings on record: in words.
Series [5] has as its system tubulin. The settings on record: in words, shown previously; cited from earlier work. The source holds these as a separate data set.
Series [6] relates to tubulin. Kind of series: radiolabeled GTP binding to tubulin (nucleotide exchange).
Series [7] relates to human tumor cell line panel. Kind of series: NCI in vitro primary screen, pattern of differential growth inhibition / mean graph comparison. As to conditions: computerized pattern-recognition analyses. The format is cell-based. An excerpt: Only two hundred years ago, many diseases ravaged humankind. Many of these diseases have been controlled or eradicated. In the development of the means to treat or control these diseases, work with the appropriate common experimental animals is of critical importance. With the various types of cancers, and with the HIV virus, such work is presently ongoing. The research for the treatment of various types of cancer is coordinated in the United States by the National Cancer Institute (NCI). NCI, as a government entity, has been charged with assisting all anti-cancer research. To establish whether a substance has anti-cancer activity, NCI has established a variety of protocols one of which involves testing the candidate substance against a cell line panel containing 60 human tumor cell lines. This protocol has been verified, and is generally accepted throughout the scientific community. This protocol and the established statistical means of evaluating the results obtained therefrom have been fully described in the literature See Principles & Practice of Oncology PPO Updates, Volume 3, Number 10, October 1989, by Michael R. Boyd, M.D., Ph.D. for an in depth description of the test protocol. […]

As for `C=C1C[C@@H]2CC[C@@]34C[C@H]5O[C@H]6[C@@H](O3)[C@H]3O[C@H](CC[C@@H]3O[C@H]6[C@H]5O4)CC(=O)O[C@@H]3[C@@H](C)[C@@H]4O[C@@H]5C[C@]6(C[C@@H]7O[C@]8(C[C@H](C)[C@@H]9O[C@H]([C@@H](O)C[C@@H](O)CO)C[C@@H]9O8)C[C@H](C)[C@@H]7O6)O[C@@H]5C[C@@H]4O[C@H]3C[C@H]3O[C@@H](CC[C@@H]1O2)C[C@@H](C)C3=C` [halichondrin B], the “inhibition of nucleotide exchange on tubulin” value in series [1] was “inhibit nucleotide exchange on tubulin”. For the same compound, in series [2], 0.2 nM corresponded to half-maximal inhibition (IC50). The “inhibition of binding of radiolabeled vinblastine” value is 51% in series [3] (5 μM) and 73% in series [3] (10 μM). For the same compound, in series [4], the “rise in the mitotic index” value is “caused a significant rise in the mitotic index”. In addition, the “mode of inhibition of vinblastine binding to tubulin” value in series [5] is recorded as “noncompetitive inhibitor of the binding of radiolabeled vinblastine to tubulin”. Besides, the “inhibition of radiolabeled GTP binding to tubulin” value is 14% in series [6] (5 μM) and 18% in series [6] (10 μM). For the same compound, the “correlation of mean graph profiles” value in series [7] was “strongly correlated with each other and also with the profiles of a general class of tubulin-interactive antimitotics”.
As for `C=C1C[C@@H]2CC[C@@]34C[C@H]5O[C@H]6[C@@H](O3)[C@H]3O[C@H](CC[C@@H]3O[C@H]6[C@H]5O4)CC(=O)O[C@@H]3[C@@H](C)[C@@H]4O[C@@H]5C[C@]6(C[C@@H]7O[C@]8(C[C@H](C)[C@@H]9O[C@@H]%10CC(C(O)CO)O[C@@H]%10C[C@@H]9O8)C[C@H](C)[C@@H]7O6)O[C@@H]5C[C@@H]4O[C@H]3C[C@H]3O[C@@H](CC[C@@H]1O2)C[C@@H](C)C3=C` (stereo partly shown) [homohalichondrin B], in series [7], the “correlation of mean graph profiles” value is “strongly correlated with each other and also with the profiles of a general class of tubulin-interactive antimitotics”.
